Among the data in ChEMBL document CHEMBL1149079, “A novel sesquiterpene quinone from Hainan sponge Dysidea villosa” (Bioorg Med Chem Lett, 2009) are Activity and IC50 values, retold here.

Activity calls are given as the source filed them. No cut-off for these calls is given here.

Assay [1] deals with CHO-K1. Description: Induction of membrane translocation of GLUT4 transporter in CHOK1 cells. In kind it is functional, cell-based. As to conditions: Cricetulus griseus.
The test system of assay [2] is Human immunodeficiency virus 1. Nature of the assay: Antiviral activity against HIV1. In kind it is functional, organism-based.
The test system of assay [3] is 3T3-L1. Nature of the assay: Increase in glucose uptake in mouse 3T3L1 cells relative to control. In kind it is functional.
The subject of assay [4] is CHO-K1. Description: Activation of insulin signaling pathway in CHOK1 cells. In kind it is functional, cell-based. Conditions: Cricetulus griseus.
The subject of assay [5] is 3T3-L1. Description: Activation of insulin signaling pathway in mouse 3T3L1 cells. In kind it is functional, cell-based.
Assay [6] concerns 3T3-L1. Nature of the assay: Induction of membrane translocation of GLUT4 transporter in mouse 3T3L1 cells. In kind it is functional, cell-based.
Assay [7] deals with T1, Tyrosine-protein phosphatase non-receptor type 1 (Homo sapiens, UniProt P18031).
T1 sequence (P18031 whole entry): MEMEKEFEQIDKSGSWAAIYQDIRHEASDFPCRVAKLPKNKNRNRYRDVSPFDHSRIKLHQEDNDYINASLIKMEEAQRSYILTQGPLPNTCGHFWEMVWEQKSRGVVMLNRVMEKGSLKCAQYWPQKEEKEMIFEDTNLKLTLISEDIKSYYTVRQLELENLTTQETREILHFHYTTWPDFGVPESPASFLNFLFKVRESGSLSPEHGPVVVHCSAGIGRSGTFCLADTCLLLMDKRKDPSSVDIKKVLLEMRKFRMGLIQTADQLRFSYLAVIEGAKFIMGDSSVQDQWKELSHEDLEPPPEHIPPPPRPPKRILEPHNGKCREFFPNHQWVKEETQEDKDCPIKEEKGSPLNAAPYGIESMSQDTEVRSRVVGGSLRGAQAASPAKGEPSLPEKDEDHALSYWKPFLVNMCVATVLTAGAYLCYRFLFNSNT
Description: Inhibition of human PTP1B.

In another assay the test system is HeLa. Nature of the assay: Cytotoxicity against human HeLa cells. In kind it is functional, cell-based.

For `CC1=CCC[C@H]2[C@@H](C)[C@@](C)(CC3=C(O)C(=O)C=C(NCCS(=O)(=O)O)C3=O)CC[C@]12C` [DYSIDINE], the result in the assay on CHO-K1 [1], in the assay with CHO-K1 [4], with 3T3-L1 [5] and in the assay with 3T3-L1 [6] was Active. For the same molecule, the result in assay [2] was inactive. The same molecule gave an Activity in the assay with 3T3-L1 [3] of 2.3. Besides, the half-inhibitory concentration (IC50) (usually the concentration that gives 50% inhibition) in assay [7] turned out to be 6.7 µM.
`COC1=CC(=O)C(O)=C(C[C@@]2(C)CC[C@]3(C)C(C)=CCC[C@H]3[C@H]2C)C1=O` [BOLINAQUINONE]: in assay [2], the result was inactive. Besides, in the assay with HeLa, the IC50 was 5.45 µM.
With `CC1=CCC[C@H]2[C@](C)(CC3=CC(=O)C=CC3=O)[C@@H](C)CC[C@]12C`, the result in assay [2] was inactive.
The same measure, in the same setting: next, `CC1=CCC[C@H]2[C@](C)(Cc3cc(O)ccc3O)[C@@H](C)CC[C@]12C`: “inactive”.
With `COC1=CC(=O)C=C(C[C@@]2(C)CC[C@]3(C)C(C)=CCC[C@H]3[C@H]2C)C1=O`, the outcome in assay [2] was inactive. The IC50 was determined as 39.5 µM in assay [7] and 19.4 µM in the assay with HeLa.
